In patent US9127040B2, “Regulation of sodium channels by PLUNC proteins” (The University of North Carolina at Chapel Hill, priority 2011, dated 2015):
Ends that are not written are not given here.

B1: SPLUNC1: human SPLUNC1 (SEQ ID NO:1), 256 amino acid secreted PLUNC family protein; rSPLUNC1 is the purified V5/6His-tagged recombinant form (protein, listed as Homo sapiens)
chain: MFQTGGLIVFYGLLAQTMAQFGGLPVPLDQTLPLNVNPALPLSPTGLAGSLTNALSNGLLSGGLLGILENLPLLDILKPGGGTSGGLLGGLLGKVTSVIPGLNNIIDIKVTDPQLLELGLVQSPDGHRLYVTIPLGIKLQVNTPLVGASLLRLAVKLDITAEILAVRDKQERIHLVLGDCTHSPGSLQISLLDGLGPLPIQGLLDSLTGILNKVLPELVQGNVCPLVNEVLRGLDITLVHDIVNMLIHGLQFVIKV
modifications: V5/6His tag in recombinant form
notes: rSPLUNC1 is the purified V5/6His-tagged recombinant form

Tests used:
[1] = biological target: T1, αENaC-eGFP and βENaC-mCherry (Homo sapiens, UniProt P37088+P51168); test: Acceptor-photobleaching FRET between fluorescently tagged ENaC subunits; format: cell-based; settings: one hour of exposure
T1 construct: expressed in transfected cells
Source text: Ai, cartoon of αENaC-eGFP and βENaC-mCherry under basal conditions (γENaC not shown). Aii We hypothesize that S18 binding to the extracellular loop of βENaC (1) induces a conformational change in ENaC which is reflected as altered intracellular FRET (2). This change may facilitate NEDD4-2-induced ubiquitination (3), leading to internalization of αβγENaC (4). […] In contrast, exposure to aprotinin had no effect. All n=8-10. C, Typical confocal images of HEK cells expressing αγENaC and βENaC-eGFP before and 1 h after 100 μM S18. Cell outlines are traced in white.
Since ENaC is regulated by NEDD4-2 binding to its C-termini, which leads to ubiquitination of its N-termini and internalization, we propose that S18 causes a conformational change in ENaC, leading to increased ubiquitination followed by internalization (FIG. 21A). As a first step towards understanding the mechanism of action of SPLUNC1, we performed FRET on fluorescently tagged ENaCs. […] Furthermore, βENaC-eGFP internalized upon S18 binding (FIG. 21C), consistent with our surface biotinylation data from oocytes.

[2] = Urinary Na+ excretion (natriuresis) in anesthetized mice after intravenous infusion; format: in vivo; settings: 250 nmol/g BW/h intravenous infusion, unconscious mice
Method: To study the effects of SPLUNC1-derived peptides on the in vivo kidney, mice were anesthetized. After a baseline 45 min control clearance period, S18-type peptide or amiloride were infused intravenously over 30 min and the natriuretic response recorded over the subsequent 2-3 h.
Urinary Na^+ output was measured in unconscious mice (FIG. 32). Amiloride (38 nmol/g BW/h; ▪) and S18 (250 nmol/g BW/h; ▴) were added during the infusion period and urinary Na^+ excretion (UNaV) was measured throughout.

ENaC = biological target: T2, ENaC (Homo sapiens, UniProt P37088+P51168+P51170); test: Transepithelial electrical resistance in human bronchial epithelial cultures; format: cell-based; settings: 50 ng/ml SPLUNC1 30 min or amiloride 10 min; effects not additive
T2 construct: measured the transepithelial voltage under thin film conditions in human bronchial epithelial cultures; endogenous in cells; host or cells: primary human bronchial epithelial cultures (normal or CF donors)
T2 sequence (P37088 1-669): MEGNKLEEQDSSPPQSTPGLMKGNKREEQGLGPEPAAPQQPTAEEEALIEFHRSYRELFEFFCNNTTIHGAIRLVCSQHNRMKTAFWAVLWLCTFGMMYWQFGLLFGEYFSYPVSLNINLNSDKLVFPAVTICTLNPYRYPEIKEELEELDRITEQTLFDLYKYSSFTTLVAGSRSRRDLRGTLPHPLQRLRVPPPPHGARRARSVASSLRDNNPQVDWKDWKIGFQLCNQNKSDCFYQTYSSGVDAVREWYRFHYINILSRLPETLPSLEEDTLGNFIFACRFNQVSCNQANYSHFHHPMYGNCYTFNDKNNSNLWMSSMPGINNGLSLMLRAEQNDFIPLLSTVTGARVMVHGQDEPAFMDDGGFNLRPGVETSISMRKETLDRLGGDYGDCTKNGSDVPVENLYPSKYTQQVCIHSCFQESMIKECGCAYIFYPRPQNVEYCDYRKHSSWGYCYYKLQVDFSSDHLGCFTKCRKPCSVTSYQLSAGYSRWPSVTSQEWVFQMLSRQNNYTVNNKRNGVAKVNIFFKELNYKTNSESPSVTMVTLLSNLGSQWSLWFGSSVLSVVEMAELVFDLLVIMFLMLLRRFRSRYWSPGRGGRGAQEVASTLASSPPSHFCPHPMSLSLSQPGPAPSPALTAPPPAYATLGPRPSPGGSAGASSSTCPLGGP
T2 sequence (P51168 1-640): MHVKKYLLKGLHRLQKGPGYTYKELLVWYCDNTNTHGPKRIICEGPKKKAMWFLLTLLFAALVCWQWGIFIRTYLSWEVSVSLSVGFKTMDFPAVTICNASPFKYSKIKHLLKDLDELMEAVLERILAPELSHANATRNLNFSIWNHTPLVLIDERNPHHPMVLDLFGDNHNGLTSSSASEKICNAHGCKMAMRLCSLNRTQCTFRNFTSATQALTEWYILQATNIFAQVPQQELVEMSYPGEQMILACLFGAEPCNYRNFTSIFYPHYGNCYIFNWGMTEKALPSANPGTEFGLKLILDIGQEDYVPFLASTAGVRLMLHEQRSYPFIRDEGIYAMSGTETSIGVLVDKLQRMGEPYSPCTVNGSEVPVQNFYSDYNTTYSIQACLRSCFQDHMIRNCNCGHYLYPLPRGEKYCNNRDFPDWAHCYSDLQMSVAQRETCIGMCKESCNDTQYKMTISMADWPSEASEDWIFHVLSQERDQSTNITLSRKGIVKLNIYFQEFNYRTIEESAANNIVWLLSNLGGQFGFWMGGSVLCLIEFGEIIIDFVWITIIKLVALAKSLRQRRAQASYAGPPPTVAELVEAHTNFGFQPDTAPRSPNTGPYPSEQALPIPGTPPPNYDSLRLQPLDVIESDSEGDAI
T2 sequence (P51170 1-649): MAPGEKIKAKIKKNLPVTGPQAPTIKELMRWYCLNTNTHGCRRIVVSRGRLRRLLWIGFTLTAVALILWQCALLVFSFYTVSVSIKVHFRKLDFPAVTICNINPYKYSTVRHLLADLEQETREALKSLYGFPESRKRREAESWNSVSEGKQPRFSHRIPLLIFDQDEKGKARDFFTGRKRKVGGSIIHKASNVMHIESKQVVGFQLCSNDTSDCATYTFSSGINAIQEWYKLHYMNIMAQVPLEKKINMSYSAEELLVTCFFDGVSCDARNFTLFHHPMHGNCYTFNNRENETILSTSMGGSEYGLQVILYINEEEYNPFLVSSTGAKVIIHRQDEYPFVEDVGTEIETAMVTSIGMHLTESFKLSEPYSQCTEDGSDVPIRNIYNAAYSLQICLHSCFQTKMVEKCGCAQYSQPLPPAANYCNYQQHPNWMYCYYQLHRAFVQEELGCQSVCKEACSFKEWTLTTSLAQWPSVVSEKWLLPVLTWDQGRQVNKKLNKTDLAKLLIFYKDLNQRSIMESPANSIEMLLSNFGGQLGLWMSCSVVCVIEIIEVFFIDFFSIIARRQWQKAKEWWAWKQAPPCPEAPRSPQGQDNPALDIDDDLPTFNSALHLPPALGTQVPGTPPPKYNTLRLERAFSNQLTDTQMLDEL
Source text: A single-barreled potential difference-sensing electrode was placed in the airway surface liquid by micromanipulator and used in conjunction with a macroelectrode in the serosal solution to measure transepithelial voltage using a voltmeter (World Precision Instruments). […] Transepithelial resistance was routinely measured using the EVOM system (WPI) as previously described ([…] et al., J. Gen. Physiol. 127:591 (2006)).

| Molecule | FRET between αENaC-eGFP and βENaC-mCherry [1] | urinary Na+ excretion (UNaV) [2] | increase of transepithelial electrical resistance (ENaC) [%] |
| --- | --- | --- | --- |
| GGLPVPLDQTLPLNVNPA [S18] | significantly diminished | induces natriuresis | – |
| B1 | – | – | ~33 |
